The subject of data set [1] is NETosis in human neutrophils. Put plainly: NETosis assay (SYTOX green, flow cytometry). The data set is classed as cell-based. The conditions noted are these: Neutrophil, two independent NETosis assays, read-out: Average percent inhibition. The protocol: Neutrophils were isolated according to the EasySep Direct Human Neutrophil Isolation Kit. In short, 50 mL of blood sample was drawn in a vacutainer containing K2EDTA from a healthy donor. To the whole blood, the isolation cocktail of 50 μL/mL was added. Then, in the next step 50 μL/mL of RapidSpheres™ was added to the sample. The sample was mixed evenly with the pipette and incubated for 10 minutes at room temperature. After incubation, PBS containing 1 mM EDTA was added at the ratio of 1:1 to the blood. Then the sample tube was incubated for 10 minutes. The enriched cell suspension was transferred into a new tube and RapidSpheres™ were added at 50 μL/mL to this suspension, mixed and incubated for 10 minutes at room temperature. At this step, the enriched cell suspension was carefully collected as a clear fraction into a fresh tube. Then, previous tube was replaced with the fresh tube containing enriched cell suspension. After the final separation, the clear solution of enriched cell suspension was carefully transferred to fresh tube which was ready to use for the experiment. These cells were then subjected to wash twice with plain RPMI 1640 media without Fetal Bovine Serum (FBS) and centrifuged at 1500 rpm for 5 minutes at room temperature. Cell counts were performed on each sample by Invitrogen cell counter. After the cell count, cell density was adjusted according to the experiment and re-suspended in complete RPMI media containing RPMI1640, 2% BSA and 1 mM CaCl2.
Freshly isolated neutrophils from human donor were seeded at a density of 0.5×10^6 cells in 400 μL cell suspension/well in a 24-well plate and cells were pre-incubated with the compound for 30 minutes by adding 50 μL of the 10× concentration to achieve the final 1× concentration of compound (10 μM, 1 μM and 0.1 μM). 1% DMSO was added in control wells. […]
Average percent inhibition for compound 143 was calculated as 2% at 0.1 μM, 30% at 1 μM and 85% at 10 μM in two independent NETosis assays using human neutrophils.
For orientation: In flow cytometry, cells or beads pass a laser one at a time.

Data set [2] deals with Bleomycin (BLM)-induced mice fibrosis. Put plainly: Bleomycin induced lung fibrosis model. It counts as in vivo, C57BL/6 male mice. The settings on record: 50 mg/kg, PO, BID. The text has this:
Bleomycin (BLM)-induced mice fibrosis is a well-established animal model used to study pathogenesis of lung fibrosis and to estimate the potential anti-fibrotic agents. C57BL/6 male mice at 6-8 weeks of age were purchased from vivo biotech India (under the license from Taconic). The procedures involving the care and use of animals in the study was reviewed and approved by the Institutional Animal Care and Use Committee (IAEC/JDC/2018-161R) prior to conduct. During the study, the care and use of animals was in accordance with the principles outlined in the Guide for the Care and Use of Laboratory Animals, 8th Edition, 2010 (National Research Council) and every effort was made to minimize suffering. The animals were acclimatized for 7 days prior to experimental use. Mice were caged with free access to food and fresh water in a temperature-controlled room (22° C.-24° C.) on a 12 h light/dark cycle. Pulmonary fibrosis was induced by invasive method in animals using single intra-tracheal administration of 50 μg bleomycin prepared in 50 μL of saline under isoflurane anaesthesia. […] Animals were monitored and evaluated for their body weight loss. […] Fibronectin was measured as a PD biomarker by RT-qPCR and fold change in mRNA level was calculated after normalizing to GAPDH. […] The Modified Ashcroft Index score was determined for the vehicle-treated control mice and the test compound treated mice.

The subject of another data set is 4T1 cells. Put plainly: Murine breast cancer efficacy model, 4T1 allograft. The data set is classed as in vivo, Balb/C female mice. The conditions noted are these: for TGI (percent tumor growth inhibition): BID, PO, day 14, 4T1. On the procedure:
PAD4 is highly expressed in malignant tumours of various cell types, Here, the mouse mammary carcinoma of 4T1 and EMT6 cells were used as an experimental model. Mouse 4T1, and EMT-6, a breast cancer cell line was sourced from American Type Culture Collection (ATCC), USA. Cells were grown according to the product information. To establish allografts, the cells were harvested by trypsinization when they reached around 70 to 80% confluence. After harvesting, Balb/C female mice (7-8 weeks) were implanted with 4T1 (1 million cells/site) and EMT-6 (0.5 million cells/site) subcutaneously in the dorsal right flank of mice using a 1 mL BD syringe attached to a 24-gauge needle. When the tumors became palpable tumor measurement was initiated and at an approximate tumor volume of ˜110 and 93 mm3, respectively. Animals were randomized into different treatment groups keeping tumor volume and the number of animals/group similar across the groups and compound 143 treatment was initiated. The procedures involving the care and use of animals in the study was reviewed and approved by the Institutional Animal Care and Use Committee (IAEC/JDC/2021/246R) prior to conduct. During the study, the care and use of animals was in accordance with the principles outlined in the Guide for the Care and Use of Laboratory Animals, 8th Edition, 2010 (National Research Council) and every effort was made to minimize suffering. The animals were acclimatized for 7 days prior to experimental use. Mice were caged with free access to food and fresh water in a temperature-controlled room (22° C.-24° C.) on a 12 h light/dark cycle.
Tumor dimensions (length and breadth) were measured on days 1 (animal randomization based on tumor volume) and thrice weekly thereafter until study termination.
Tumor volumes were calculated using the formula (b2*1)*0.52 where l=length, b=breadth (Dusan Djokovic et al., BMC Cancer, 2010, 10:641).
The percent tumor growth inhibition (% TGI) as a function of anti-tumor efficacy were computed with respect to untreated vehicle control by comparing to the tumor volumes of day 1. […]

Each structure is given as a SMILES string.

For the molecule `N[C@@H]1CCCN(C(=O)c2cc3c4c(c2)nc(-c2cc5cccc(Cl)c5n2CC2CC2)n4CCO3)C1` [Compound 143, (R)-(3-aminopiperidin-1-yl)(2-(7-chloro-1-(cyclopropylmethyl)-1H-indol-2-yl)-3,4-dihydro-5-oxa-1,2a-diazaacenaphthylen-7-yl)methanone], in data set [1] (at 0.1 μM), the inhibition at 0.1 µM was 2%. Moreover, the inhibition at 1 µM in data set [1] (at 1 μM) worked out at 30%. Further, the inhibition at 10 µM in data set [1] (at 10 μM) turned out to be 85%. For the same molecule, in data set [2] (day 0 to 14, prophylactic), the Lung weight result is reported as “reduction in lung weight comparable to standard of care Nintedanib”. For the same molecule, in data set [2] (lung, RT-qPCR normalized to GAPDH), the “Fibronectin mRNA” value was “stronger reduction of fibronectin mRNA as compared to Nintedanib”. Also, the “TGI (percent tumor growth inhibition)” value is given as 24.3% in the data set on 4T1 cells (25 mg/kg) and 48.8% in the data set on 4T1 cells (50 mg/kg). The Body weight changes result in the data set with 4T1 cells (4T1 bearing mice, BID PO for 14 days) is given as “no significant body weight changes”.

Usually inhibition stands for how much of the control response was suppressed.

The values are drawn from patent publication US20220047569A1, “METHOD AND COMPOUND FOR USE, IN TREATING AND/OR PREVENTING NETOSIS” (Jubilant EpiPad LLC, priority 2020, published 2022).
